Test results reported in US20060211705A1, “'N-(2-chloro-6-methylphenyl)-2-[[6-[4-(2-hydroxyethyl)-1-piperazinyl]-2-methyl-4-pyrimidinyl]amino]-5-thiazolecarboxamides metabolites” (priority 2005, published 2006).

Tests used:
[1] = In vivo metabolism of compound of formula I in bile duct cannulated rats by LC/UV/MSn; set-up: species or system rat; conditions: BDC rats; for Relative abundance in gastrointestinal samples from rats dosed orally: 10 mg/kg oral, GIT at 9 hour; for Relative abundance in rat bile / Relative abundance in rat urine: 10 mg/kg; for Relative abundance in rat bile: bile over 9 hour; for Relative abundance in rat urine: urine over 9 hour
Method: The in vivo metabolism of compound of formula I was investigated in bile duct cannulated rats (n=2), following a single dose of 10 mg/kg either intravenously (IV) as a 10 minute infusion or orally by gavage. The vehicle used was 50 mM sodium acetate buffer, pH 4.6. The rats were fasted overnight and for the duration of the study. Urine and bile were collected over a 9 hour period. The gastrointestinal tract (GIT) and feces were collected at the end of the 9 hour study period. GIT and feces were homogenized with 3 volumes of water and 3 volumes of acetonitrile per volume of GIT/feces. Blood samples were collected at 15, 30 minutes, 1, 2, 4, 6 and 9 hours after intravenous and oral dosing in tubes containing EDTA and plasma was prepared by centrifugation. Samples were stored at −20° C. until analysis.
Plasma samples were pooled across collection intervals and treated with two volumes of acetonitrile. After centrifugation, the supernatent was removed and evaporated to dryness. The residues were then redissolved in 300 μl of methanol:water (1:1). Bile and urine samples from the BDC rat study were pooled across collection intervals. Bile samples were purified by sep-pak purification on C8 cartridges. The samples were evaporated and the residue was redissolved in 300 μl of methanol:water (1:1). Urine samples were diluted one to one with methanol and analyzed without further purification. All samples were analyzed by LC/UV/MS^n.
The HPLC system consisted of Waters alliance 2690 separation module. The column used was a Phenomenex Curosil PFP, 4.6 mm×150 mm, 5 μ particles with a flow rate of 1.0 mL/min. The mobile phase consisted of 95/5 v/v Water/Methanol containing 0.1% formic acid (Solvent A) and Methanol (Solvent B). The initial mobile phase composition was 20% Solvent B. After sample injection, this composition was held for 0.5 minute at initial conditions then ramped to 80% solvent B up to 24.5 min, and ramped to 100% solvent B up to 28 minutes. The mobile phase was then returned to initial conditions and the column re-equilibrated for 5 minutes. Total analysis time was 33 minutes.
The HPLC was interfaced to a Finnigan's Photo Diode Array Detector (PDA: UV6000) in tandem with Finnigan Deca XP ion trap mass spectrometer. Deca XP mass spectrometer was equipped with an Electrospray ionization source (ESI) interface. The source was operated in a positive ion mode with capillary temperature of 350° C. and source voltage 5.0 kV. The UV profile was extracted at […] of 254 nm. UHP (Ultra High Purity) nitrogen was used as sheath and auxiliary gas. The normalized collision energy was set at 50% and the isolation width was 3.0 amu. Multiple MS experiments were performed in a single chromatographic run with the following data dependent settings: […]

[2] = Radioactive metabolites in plasma, urine and feces after single oral dose of [14C] compound (I) to rats; assay type: in vivo, Sprague-Dawley rat; conditions: for % Distribution of radioactive metabolites in pooled plasma, Rat (4 h): oral 15 mg/kg [14C] compound (I), plasma 4 h; for Metabolites in Feces (0-168 hr), Rat, % Dose / Metabolites in Feces (0-168 hr), Rat, % Rad (% of total radioactivity in sample) / Metabolites in Urine (0-168 hr), Rat, % Dose / Metabolites in Urine (0-168 hr), Rat, % Rad (% of total radioactivity in sample): oral 15 mg/kg; for Metabolites in Feces (0-168 hr), Rat, % Dose / Metabolites in Feces (0-168 hr), Rat, % Rad (% of total radioactivity in sample): pooled fecal extracts 0-168 hr; for Metabolites in Urine (0-168 hr), Rat, % Dose / Metabolites in Urine (0-168 hr), Rat, % Rad (% of total radioactivity in sample): pooled urine 0-168 hr
Method: Plasma samples were segregated by collection time and equal volumes of individual plasma samples at a given time point were combined for biotransformation profiling.
The C-14 label was on the carbon-2 of the thiazole ring.
HPLC was performed on an Agilent 1100™ system equipped with binary pumps, autoinjector, and a column heater. A Phenomenex Synergy Polar-RP® column (4.6×250 mm, 5 micron) was used for metabolite separation. All HPLC analyses were performed at 1 mL/min flow rate at 35° C. The HPLC mobile phase consisted of (A) water with 0.1% formic acid and (B) acetonitrile with 0.1% formic acid.
Each fraction of column eluent was evaporated to dryness on a Savant Speed-Vac (Savant Instruments Inc., Holbrook, N.Y.) and counted for radioactivity with a Packard Top Count® microplate scintillation analyzer (Packard Biosciences, Downers Grove, Ill.).
The volumes of pooled plasma processed for HPLC analysis for rat, monkey and human ranged between 1.5 and 8.0 mL. Pooled plasma samples were extracted with methanol/acetonitrile (1:1) at a ratio of 2 volumes solvent to 1 volume of plasma. The mixtures were vortex mixed, sonicated for 5 min, and centrifuged at 3500 rpm for 10 min. The supernatants were transferred into new tubes. The remaining pellets were extracted two more times with 3 mL of methanol/acetonitrile (1:1). The supernatants were combined and evaporated to dryness in a Savant Speed-Vac (Savant Instruments, Inc., Holbrook, N.Y.). The residue was reconstituted into 0.35 to 0.45 mL of 30% acetonitrile in water, vortex mixed and centrifuged at 13000 rpm for 5 min (American Scientific Products Biofuge A centrifuge, Heraeus Sepatech GmbH, Germany). The supernatant was injected onto the HPLC for profiling. Aliquots of the reconstituted samples (30 μl) were also counted on the liquid scintillation counter (LSC) to determine the recovery of radioactivity.
The pooled monkey and human urine samples (3-5 mL) were extracted with 2 volumes of acetonitrile/acetone (1:1). The mixtures were vortex mixed, sonicated and centrifuged at 3500 rpm for 10 min. The supernatants were evaporated to dryness. The residue was suspended in 0.3-0.5 mL of 30% acetonitrile in water and centrifuged at 13000 rpm for 5 min. Aliquots of the supernatants were injected onto the HPLC or analyzed by LSC for radioactivity recovery. Pooled urine samples from BDC monkeys and rats were centrifuged at 13000 rpm for 10 min and injected onto the HPLC for profiling without further treatment.
The amount of fecal homogenate used for analysis was 0.20, 0.19 and 0.51 g for rat, monkey and human, respectively. Each pooled fecal homogenate was extracted by addition of 3 volumes of acetonitrile/methanol (1:1) to 1 volume of fecal homogenate and mixed on a vortex mixer. The mixture was sonicated for 5 min and then centrifuged at 3000 rpm for 10 min. The supernatants were removed and saved. The extraction was repeated two additional times and the supernatants were combined and evaporated to dryness on a Savant Speed-Vac. […] An aliquot of the supernatant was injected onto the HPLC or analyzed by LSC for radioactivity recovery.
The LC/MS system used for analysis of plasma, urine, bile, and fecal samples consisted of an Agilent 1100™ HPLC system connected to a Finnigan LCQ-DecaXP mass spectrometer. Samples were analyzed using positive electrospray ionization. The capillary temperature used for analysis was 320° C., and the nitrogen gas flow rate, spray current, and voltages were adjusted to give maximum sensitivity. The HPLC conditions were described in section 3.3.1.
Counts per min (CPM) were determined on a Packard TopCount NXT microplate scintillation and luminescence counter. For each injection, the average CPM value (2-4 CPM) obtained from fractions between 2-3 min (column void) in the chromatogram was subtracted from the CPM value of each fraction. Biotransformation profiles were prepared by plotting the background subtracted CPM values against time-after-injection.

| SMILES | Relative abundance in gastrointestinal samples from rats dosed orally [1] | % Distribution of radioactive metabolites in pooled plasma, Rat (4 h) [2] [%] | Metabolites in Feces (0-168 hr), Rat, % Dose [2] [%] | Metabolites in Feces (0-168 hr), Rat, % Rad (% of total radioactivity in sample) [2] [%] | Metabolites in Urine (0-168 hr), Rat, % Dose [2] [%] | Metabolites in Urine (0-168 hr), Rat, % Rad (% of total radioactivity in sample) [2] [%] | Relative abundance in rat bile [1] | Relative abundance in rat urine [1] | Relative abundance in rat plasma ([1]; 10 mg/kg IV or oral, pooled plasma, LC/UV/MSn) |
| --- | --- | --- | --- | --- | --- | --- | --- | --- | --- |
| Cc1nc(Nc2ncc(C(=O)Nc3c(C)cccc3Cl)s2)cc(N2CCNCC2)n1 [M4 (II)] | trace amounts | 2.6 | 1.9 | 2.5 | 0.3 | 4.4 | – | – | – |
| Cc1nc(Nc2ncc(C(=O)Nc3c(C)cc(O)cc3Cl)s2)cc(N2CCN(CCO)CC2)n1 [M20 (V)] | – | – | 7.6 | 9.9 | 0.6 | 9.9 | – | – | – |
| Cc1nc(Nc2ncc(C(=O)Nc3c(C)cccc3Cl)s2)cc(N2CCN(CC(=O)O)CC2)n1 [M6 (IV), 2-(4-(6-(5-((2-Chloro-6-methylphenyl)carbamoyl)thiazol-2-ylamino)-2-methylpyrimidin-4-yl)piperazin-1-yl)acetic acid] | trace amounts | 2.2 | 13.2 | 17.3 | 0.4 | 6.5 | major metabolites | – | – |
| Cc1nc(Nc2ncc(C(=O)Nc3c(Cl)cccc3CO)s2)cc(N2CCN(CCO)CC2)n1 [M24 (VI), N-(2-chloro-6-(hydroxymethyl)phenyl)-2-(6-(4-(2-hydroxyethyl)piperazin-1-yl)-2-methylpyrimidin-4-ylamino)thiazole-5-carboxamide] | – | – | 3.1 | 4.0 | – | – | – | – | – |
| Cc1nc(Nc2ncc(C(=O)Nc3c(C)cccc3Cl)s2)cc(N2CC[N+]([O-])(CCO)CC2)n1 [M5 (III)] | – | 18.7 | – | – | 3.4 | 52.4 | major metabolites | major metabolite | – |
| Cc1nc(Nc2ncc(C(=O)Nc3c(C)cccc3Cl)s2)cc(N2CCN(CCO)CC2)n1 [Parent (I), N-(2-Chloro-6-methylphenyl)-2-[[6-[4-(2-hydroxyethyl)-1-piperazinyl]-2-methyl-4-pyrimidinyl]amino]-5-thiazolecarboxamide] | major drug related peak | 52.8 | 41.6 | 54.5 | 0.7 | 11.6 | – | trace amounts | major peak |
